Test results as given in patent US20240285500A1, “HAIR GROWTH AGENT” (ADJUVANT HOLDINGS CO., LTD., priority 2021, published 2024).

Legend:
[1] = tested on: VEGF gene expression in human dermal papilla cells; test: Evaluation of human dermal papilla cell VEGF gene expression (real-time PCR); assay type: cell-based; settings: 72 hours
Method: Exemplary Test 1: Evaluation of Human Dermal Papilla Cell VEGF Gene Expression
The VEGF gene is expressed in dermal papilla cells, and contributes to expression of such effects as increase in hair shaft diameter and improving maximum hair shaft length and improving hair shaft elongation rate and hair shaft growth promotion at head hair, beard, eyebrows, and/or eyelashes. Human dermal papilla cells were therefore used, and evaluation was carried out with respect to increase in VEGF gene expression for the respective components.
Human dermal papilla cells (Catalog No. CA60205a; derived from person; Toyobo Co., Ltd. (Japan)) were purchased, testing and evaluation being carried out with maintenance and culture of cells being performed as described in the protocol. […]
A 24-well plate was seeded with human dermal papilla cells so as to obtain 6×10^3 thereof per well. […] The GAPDH gene was used as an internal standard, the amount of VEGF gene expression being calculated relative to the negative control group. […]

[2] = tested on: vascular endothelial growth factor (VEGF) expression in human dermal papilla cells; settings: cited from earlier work

Compound: CCCCCCCCCCCCCC[C@@H](O)[C@@H](O)[C@@H](N)CO [Working Example 1, phytosphingosine]
- change in amount of expression of the VEGF gene as compared with the control group ([1]; vs control group at which nothing had been added, GAPDH internal standard, FIG. 1): increase in dosage-dependent fashion in the amount of expression of the VEGF gene

Compound: Nc1ncnc2c1ncn2[C@@H]1O[C@H](CO)[C@@H](O)[C@H]1O [adenosine]
- expression of vascular endothelial growth factor (VEGF) [2]: promotes expression of vascular endothelial growth factor (VEGF)

Compound: CCCCCCCCCCCCCC[C@@H](O)[C@@H](O)[C@@H](N)CO [phytosphingosine]
- amount of expression of the VEGF gene compared with Comparative Example 1 ([1]; increased amount of phytosphingosine vs Comparative Example 1, FIG. 1): significantly greater
